Experiments:
[1] = tested on: Mycobacterium tuberculosis Erdman (autoluminescent); assay: total FIC50 (Loewe) at 50% inhibition, three-drug combination (log2); higher = more antagonistic
Description: (§1)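 DiaMOND equipotent three-drug combination dose responses (10 doses, 1.5- or 2-fold spacing, centred on IC90) against autoluminescent M. tuberculosis Erdman in 8 in vitro models. Read-out is OD600, or luminescence for the intracellular and dormancy models, normalised to untreated wells. Hill-fit Einf, AUC25 and GRinf are potency metrics; FIC50 and FIC90 are total Loewe fractional inhibitory concentrations as log2 (negative = synergy).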

[2] = tested on: Mycobacterium tuberculosis Erdman (autoluminescent); assay: total FIC90 (Loewe) at 90% inhibition, three-drug combination (log2); higher = more antagonistic
Description: as §1

[3] = tested on: Mycobacterium tuberculosis Erdman (autoluminescent); assay: AUC25, normalised area under dose response up to IC25 (three-drug combination) (fraction (0-1)); higher = more potent at low dose
Description: as §1

[4] = tested on: Mycobacterium tuberculosis Erdman (autoluminescent); assay: Einf, fitted maximum growth inhibition of three-drug combination (fraction); higher = stronger maximal inhibition
Description: as §1

[5] = tested on: Mycobacterium tuberculosis Erdman (autoluminescent); assay: GRinf, maximum normalised growth rate inhibition (three-drug combination) (unitless (-1 to 1)); higher = less effect (negative = killing)
Description: as §1

[6] = in vitro model: acidic pH 5.7, time point: constant (~7 days, model-specific)
[7] = in vitro model: acidic pH 5.7, time point: terminal (~4-5 doublings, model-specific)
[8] = in vitro model: butyrate, time point: constant (~7 days, model-specific)
[9] = in vitro model: butyrate, time point: terminal (~4-5 doublings, model-specific)
[10] = in vitro model: cholesterol 0.05 mM, time point: terminal (~4-5 doublings, model-specific)
[11] = in vitro model: cholesterol-high 0.2 mM, time point: constant (~7 days, model-specific)
[12] = in vitro model: cholesterol-high 0.2 mM, time point: terminal (~4-5 doublings, model-specific)
[13] = in vitro model: dormancy (butyrate + nitrate, low O2), time point: constant (~7 days, model-specific)
[14] = in vitro model: dormancy (butyrate + nitrate, low O2), time point: terminal (~4-5 doublings, model-specific)
[15] = in vitro model: standard 7H9 glycerol, time point: constant = terminal
[16] = in vitro model: valerate, time point: constant (~7 days, model-specific)
[17] = in vitro model: valerate, time point: terminal (~4-5 doublings, model-specific)
[18] = in vitro model: intracellular J774, time point: constant = terminal
[19] = in vitro model: cholesterol 0.05 mM, time point: constant (~7 days, model-specific)

CC(C)/N=c1\cc2n(-c3ccc(Cl)cc3)c3ccccc3nc-2cc1Nc1ccc(Cl)cc1 [clofazimine] + CC[C@@H](CO)NCCN[C@@H](CC)CO [ethambutol] + CC(=O)NC[C@H]1CN(c2ccc(N3CCOCC3)c(F)c2)C(=O)O1 [linezolid]
total FIC50 [1, 6]: 0.0935
total FIC50 [1, 7]: 0.906
total FIC50 [1, 8]: 0.534
total FIC50 [1, 9]: 0.703
total FIC50 [1, 10]: -0.786
total FIC50 [1, 11]: 0.0764
total FIC50 [1, 12]: -0.259
total FIC50 [1, 13]: 0.231
total FIC50 [1, 14]: 0.197
total FIC50 [1, 15]: 0.243
total FIC50 [1, 16]: 0.664
total FIC50 [1, 17]: 0.302
total FIC90 [2, 7]: 0.401
total FIC90 [2, 9]: 0.483
total FIC90 [2, 12]: 0.74
total FIC90 [2, 14]: 0.279
total FIC90 [2, 18]: 0.836
total FIC90 [2, 17]: -0.133
AUC25 [3, 6]: 0.105
AUC25 [3, 7]: 0.0957
AUC25 [3, 8]: 0.11
AUC25 [3, 9]: 0.0792
AUC25 [3, 19]: 0.148
AUC25 [3, 10]: 0.165
AUC25 [3, 11]: 0.129
AUC25 [3, 12]: 0.125
AUC25 [3, 13]: 0.0953
AUC25 [3, 14]: 0.0972
AUC25 [3, 15]: 0.122
AUC25 [3, 16]: 0.11
AUC25 [3, 17]: 0.0648
Einf [4, 6]: 0.811
Einf [4, 7]: 0.963
Einf [4, 8]: 0.96
Einf [4, 9]: 0.977
Einf [4, 19]: 0.746
Einf [4, 10]: 0.917
Einf [4, 11]: 0.925
Einf [4, 12]: 1
Einf [4, 13]: 0.783
Einf [4, 14]: 0.963
Einf [4, 18]: 1
Einf [4, 15]: 0.949
Einf [4, 16]: 0.869
Einf [4, 17]: 0.881
GRinf [5, 6]: -0.393
GRinf [5, 7]: -0.297
GRinf [5, 8]: -0.165
GRinf [5, 9]: -0.123
GRinf [5, 19]: -0.203
GRinf [5, 10]: -0.514
GRinf [5, 11]: -1
GRinf [5, 12]: -0.967
GRinf [5, 13]: 0.496
GRinf [5, 14]: -0.701
GRinf [5, 18]: -0.815
GRinf [5, 15]: -0.0541
GRinf [5, 16]: -0.282
GRinf [5, 17]: -0.0657

NNC(=O)c1ccncc1 [isoniazid] + CC(=O)NC[C@H]1CN(c2ccc(N3CCOCC3)c(F)c2)C(=O)O1 [linezolid] + NC(=O)c1cnccn1 [pyrazinamide]
total FIC50 [1, 6]: -1.93
total FIC50 [1, 7]: -1.83
total FIC50 [1, 8]: -1.9
total FIC50 [1, 9]: -1.67
total FIC50 [1, 10]: 4.08
total FIC50 [1, 11]: 0.365
total FIC50 [1, 12]: 0.683
total FIC50 [1, 13]: -1.89
total FIC50 [1, 14]: -1.99
total FIC50 [1, 15]: -5.13
total FIC50 [1, 16]: -2.58
total FIC50 [1, 17]: -2.64
total FIC90 [2, 7]: -1.21
total FIC90 [2, 8]: 1.62
total FIC90 [2, 9]: -1.24
total FIC90 [2, 12]: 0.315
total FIC90 [2, 13]: -2.36
total FIC90 [2, 14]: -2.42
total FIC90 [2, 18]: 0.444
total FIC90 [2, 17]: -3
AUC25 [3, 6]: 0.11
AUC25 [3, 7]: 0.0984
AUC25 [3, 8]: 0.108
AUC25 [3, 9]: 0.08
AUC25 [3, 19]: 0.144
AUC25 [3, 10]: 0.14
AUC25 [3, 11]: 0.0969
AUC25 [3, 12]: 0.0817
AUC25 [3, 13]: 0.0523
AUC25 [3, 14]: 0.0408
AUC25 [3, 15]: 0.0756
AUC25 [3, 16]: 0.0944
AUC25 [3, 17]: 0.0892
Einf [4, 6]: 0.842
Einf [4, 7]: 0.983
Einf [4, 8]: 0.91
Einf [4, 9]: 0.955
Einf [4, 19]: 0.686
Einf [4, 10]: 0.89
Einf [4, 11]: 0.893
Einf [4, 12]: 1
Einf [4, 13]: 0.9
Einf [4, 14]: 0.987
Einf [4, 18]: 0.956
Einf [4, 15]: 0.939
Einf [4, 16]: 0.836
Einf [4, 17]: 0.927
GRinf [5, 6]: -0.287
GRinf [5, 7]: -0.282
GRinf [5, 8]: 0.0266
GRinf [5, 9]: 0.0226
GRinf [5, 19]: -0.218
GRinf [5, 10]: -0.273
GRinf [5, 11]: -0.233
GRinf [5, 12]: -0.765
GRinf [5, 13]: 0.189
GRinf [5, 14]: -0.229
GRinf [5, 18]: -0.246
GRinf [5, 15]: -0.0363
GRinf [5, 16]: 0.0599
GRinf [5, 17]: 0.0322

CC(C)/N=c1\cc2n(-c3ccc(Cl)cc3)c3ccccc3nc-2cc1Nc1ccc(Cl)cc1 [clofazimine] + CC[C@@H](CO)NCCN[C@@H](CC)CO [ethambutol] + NNC(=O)c1ccncc1 [isoniazid]
total FIC50 [1, 6]: 0.498
total FIC50 [1, 7]: 0.678
total FIC50 [1, 8]: 0.523
total FIC50 [1, 9]: 0.504
total FIC50 [1, 19]: 0.257
total FIC50 [1, 10]: 1.57
total FIC50 [1, 11]: 0.899
total FIC50 [1, 12]: 0.577
total FIC50 [1, 13]: 0.0627
total FIC50 [1, 14]: -0.121
total FIC50 [1, 15]: -0.209
total FIC50 [1, 16]: 0.974
total FIC50 [1, 17]: 0.446
total FIC90 [2, 7]: 0.618
total FIC90 [2, 9]: 0.513
total FIC90 [2, 12]: 0.985
total FIC90 [2, 14]: 0.753
total FIC90 [2, 18]: -0.505
total FIC90 [2, 17]: -0.137
AUC25 [3, 6]: 0.0868
AUC25 [3, 7]: 0.0876
AUC25 [3, 8]: 0.0914
AUC25 [3, 9]: 0.0804
AUC25 [3, 19]: 0.117
AUC25 [3, 10]: 0.126
AUC25 [3, 11]: 0.0601
AUC25 [3, 12]: 0.0945
AUC25 [3, 13]: 0.0906
AUC25 [3, 14]: 0.132
AUC25 [3, 15]: 0.118
AUC25 [3, 16]: 0.128
AUC25 [3, 17]: 0.0871
Einf [4, 6]: 0.732
Einf [4, 7]: 0.955
Einf [4, 8]: 0.946
Einf [4, 9]: 0.976
Einf [4, 19]: 0.751
Einf [4, 10]: 0.852
Einf [4, 11]: 0.951
Einf [4, 12]: 0.998
Einf [4, 13]: 0.807
Einf [4, 14]: 0.998
Einf [4, 18]: 0.988
Einf [4, 15]: 0.954
Einf [4, 16]: 0.873
Einf [4, 17]: 0.919
GRinf [5, 6]: -0.0169
GRinf [5, 7]: -0.0829
GRinf [5, 8]: -0.098
GRinf [5, 9]: -0.12
GRinf [5, 19]: -0.165
GRinf [5, 10]: -0.135
GRinf [5, 11]: -0.518
GRinf [5, 12]: -0.932
GRinf [5, 13]: 0.507
GRinf [5, 14]: -0.444
GRinf [5, 18]: -0.375
GRinf [5, 15]: -0.121
GRinf [5, 16]: 0.0565
GRinf [5, 17]: 0.0494

CC[C@@H](CO)NCCN[C@@H](CC)CO [ethambutol] + CC(=O)NC[C@H]1CN(c2ccc(N3CCOCC3)c(F)c2)C(=O)O1 [linezolid] + COc1c(N2C[C@@H]3CCCN[C@@H]3C2)c(F)cc2c(=O)c(C(=O)O)cn(C3CC3)c12 [moxifloxacin]
total FIC50 [1, 6]: 0.0272
total FIC50 [1, 7]: 1.25
total FIC50 [1, 8]: 0.436
total FIC50 [1, 9]: 0.501
total FIC50 [1, 19]: -0.0271
total FIC50 [1, 10]: 7.63
total FIC50 [1, 11]: 0.596
total FIC50 [1, 12]: 0.421
total FIC50 [1, 13]: 0.25
total FIC50 [1, 14]: -0.563
total FIC50 [1, 15]: 0.808
total FIC50 [1, 16]: 0.39
total FIC50 [1, 17]: 0.654
total FIC90 [2, 7]: 0.487
total FIC90 [2, 9]: 0.397
total FIC90 [2, 12]: 1
total FIC90 [2, 14]: 0.576
total FIC90 [2, 18]: -0.395
total FIC90 [2, 15]: 0.685
total FIC90 [2, 17]: 0.845
AUC25 [3, 6]: 0.121
AUC25 [3, 7]: 0.101
AUC25 [3, 8]: 0.0929
AUC25 [3, 9]: 0.0678
AUC25 [3, 19]: 0.149
AUC25 [3, 10]: 0.162
AUC25 [3, 11]: 0.111
AUC25 [3, 12]: 0.109
AUC25 [3, 13]: 0.0953
AUC25 [3, 14]: 0.0816
AUC25 [3, 15]: 0.0554
AUC25 [3, 16]: 0.0828
AUC25 [3, 17]: 0.0583
Einf [4, 6]: 0.782
Einf [4, 7]: 0.956
Einf [4, 8]: 0.887
Einf [4, 9]: 0.938
Einf [4, 19]: 0.725
Einf [4, 10]: 0.932
Einf [4, 11]: 0.942
Einf [4, 12]: 1
Einf [4, 13]: 0.849
Einf [4, 14]: 0.967
Einf [4, 18]: 0.966
Einf [4, 15]: 0.958
Einf [4, 16]: 0.872
Einf [4, 17]: 0.938
GRinf [5, 6]: -0.587
GRinf [5, 7]: -0.36
GRinf [5, 8]: 0.105
GRinf [5, 9]: 0.104
GRinf [5, 19]: -0.165
GRinf [5, 10]: -0.548
GRinf [5, 11]: -0.318
GRinf [5, 12]: -0.97
GRinf [5, 13]: 0.414
GRinf [5, 14]: -0.0859
GRinf [5, 18]: -0.388
GRinf [5, 15]: -0.3
GRinf [5, 16]: 0.0258
GRinf [5, 17]: -0.0184
